Experiments:
cdk1/cyclinB = cdk1/cyclinB (Homo sapiens, UniProt P06493); assay: Cyclin dependent kinase 1 assay (cdk1/cyclinB), 32P incorporation, filter plate; type: biochemical; details: retinoblastoma substrate, 12 mM ATP, 25° C., 15 minutes; read-out: Inhibition of Cdks: IC50 Cdk1/B
How it was run: (§1)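 Radiometric filter assay: 20 ng cdk1/B, cdk2/A or cdk2/E with 1 μg retinoblastoma substrate in 20 mM Tris pH 7.4, 50 mM NaCl, 1 mM DTT, 10 mM MgCl2, […] plus [32P]ATP. Started with ATP, 15 min at 25 °C, stopped and precipitated with TCA; 32P incorporation counted for IC50.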

cdk2/cyclinA = cdk2/cyclinA (Homo sapiens, UniProt P24941); assay: Cyclin dependent kinase 2 assay (cdk2/cyclinA), 32P incorporation, filter plate; type: biochemical; details: retinoblastoma substrate, 12 mM ATP, 25° C., 15 minutes; read-out: Inhibition of Cdks: IC50 Cdk2/A
How it was run: as §1

[1] = target: T1, FGF-1 (flg) receptor tyrosine kinase (FGFr) (Homo sapiens, UniProt P11362); assay: FGF Receptor Tyrosine Kinase Assay; type: biochemical; details: glutamate-tyrosine co-polymer substrate; read-out: Inhibition of Tyrosine Kinases: IC50 in parenthesis FGFr
T1 construct: amplify a fragment of DNA that codes for the intracellular tyrosine kinase domain; made in house; host or cells: SF9 insect cells (baculovirus); crude cell lysate used
T1 sequence (P11362 478-767 limits assumed): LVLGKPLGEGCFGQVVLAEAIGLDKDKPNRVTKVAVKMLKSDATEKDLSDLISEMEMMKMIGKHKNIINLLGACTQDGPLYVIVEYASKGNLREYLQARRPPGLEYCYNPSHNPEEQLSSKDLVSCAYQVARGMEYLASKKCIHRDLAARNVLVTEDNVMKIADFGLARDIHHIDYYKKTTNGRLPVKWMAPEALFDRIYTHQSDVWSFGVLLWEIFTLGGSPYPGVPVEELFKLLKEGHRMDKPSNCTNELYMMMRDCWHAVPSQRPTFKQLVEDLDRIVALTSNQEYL
From the text: (§2) PDGF and FGF Receptor Tyrosine Kinase Assays
(§3) Full-length cDNAs for the mouse PDGF-β and human FGF-1 (flg) receptor tyrosine kinases are obtained from J. Escobedo and prepared as described in J. Biol. Chem. 1991; 262:1482-1487. PCR primers are designed to amplify a fragment of DNA that codes for the intracellular tyrosine kinase domain. The fragment is inserted into a baculovirus vector, cotransfected with AcMNPV DNA, and the recombinant virus isolated. SF9 insect cells are infected with the virus to overexpress the protein, and the cell lysate is used for the assay. Assays are performed in 96-well plates (100 μL/incubation/well), and conditions are optimized to measure the incorporation of ^32P from γ^32P-ATP into a glutamate-tyrosine co-polymer substrate. Briefly, to each well is added 82.5 μL of incubation buffer containing 25 mM Hepes (pH 7.0), 150 mM NaCl, 0.1% Triton X-100, 0.2 mM PMSF, 0.2 mM Na3VO4, 10 mM MnCl2, and 750 μg/mL of Poly (4:1) glutamate-tyrosine followed by 2.5 μL of inhibitor and 5 μL of enzyme lysate (7.5 μg/μL FGF-TK or 6.0 μg/μL PDGF-TK) to initiate the reaction. Following a 10-minute incubation at 25° C. […] of γ^32P-ATP (0.4 μCi plus 50 μM ATP) is added to each well, and samples are incubated for an additional 10 minutes at 25° C. The reaction is terminated by the addition of 100 μL of 30% trichloroacetic acid (TCA) containing 20 mM sodium pyrophosphate and precipitation of material onto glass fiber mats (Wallac). Filters are washed 3 times with 15% TCA containing 100 mM sodium pyrophosphate, and the radioactivity retained on the filters counted in a Wallac 1250 Betaplate reader. Nonspecific activity is defined as radioactivity retained on the filters following incubation of samples with buffer alone (no enzyme). Specific enzymatic activity (enzyme plus buffer) is defined as total activity minus nonspecific activity.

cdk4/cyclinD = cdk4/cyclinD (Homo sapiens, UniProt P11802); assay: Cyclin Dependent Kinase 4 (cdk-4) Assay, 32P incorporation, filter plate; type: biochemical; details: retinoblastoma substrate, 25 μM ATP, 25° C., 15 minutes; read-out: Inhibition of Cdks: IC50 Cdk4D
cdk4/cyclinD, sequence (P11802 whole entry, species assumed): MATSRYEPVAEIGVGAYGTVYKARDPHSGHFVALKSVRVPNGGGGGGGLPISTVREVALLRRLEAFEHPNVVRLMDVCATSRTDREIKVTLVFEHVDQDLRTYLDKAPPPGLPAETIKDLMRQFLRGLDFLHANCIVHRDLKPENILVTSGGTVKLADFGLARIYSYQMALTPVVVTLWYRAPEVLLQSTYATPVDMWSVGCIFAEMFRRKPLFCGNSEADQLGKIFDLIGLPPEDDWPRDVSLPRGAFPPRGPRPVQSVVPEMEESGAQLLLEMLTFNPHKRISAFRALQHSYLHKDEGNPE
cdk4/cyclinD, sequence (P24385 whole entry partner, species assumed): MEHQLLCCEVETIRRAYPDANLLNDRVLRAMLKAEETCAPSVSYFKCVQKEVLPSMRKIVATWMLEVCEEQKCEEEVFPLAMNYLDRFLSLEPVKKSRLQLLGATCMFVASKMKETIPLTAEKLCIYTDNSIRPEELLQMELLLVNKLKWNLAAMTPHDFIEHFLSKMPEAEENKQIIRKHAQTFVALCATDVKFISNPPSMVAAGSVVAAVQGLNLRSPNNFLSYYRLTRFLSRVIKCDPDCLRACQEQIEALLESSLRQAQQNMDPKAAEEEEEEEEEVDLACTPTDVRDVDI
How it was run: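 Filter-plate radiometric assay for IC50s: 20 ng cdk4 with 1 μg retinoblastoma substrate in 20 mM TRIS pH 7.4, 50 mM NaCl, 1 mM DTT, 10 mM MgCl2. Started with 25 μM ATP plus [32P]ATP and run 15 min at 25° C, then stopped with TCA. Precipitated substrate was washed and 32P incorporation counted.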

cdk2/cyclinE = cdk2/cyclinE (Homo sapiens, UniProt P24941); assay: Cyclin dependent kinase 2 assay (cdk2/cyclinE), 32P incorporation, filter plate; type: biochemical; details: retinoblastoma substrate, 12 mM ATP, 25° C., 15 minutes; read-out: Inhibition of Cdks: IC50 Cdk2/E
How it was run: as §1

[2] = target: T2, PDGF-β receptor tyrosine kinase (PDGFr) (Mus musculus, UniProt P05622); assay: PDGF Receptor Tyrosine Kinase Assay; type: biochemical; details: glutamate-tyrosine co-polymer substrate; read-out: Inhibition of Tyrosine Kinases: IC50 in parenthesis PDGFr
T2 construct: amplify a fragment of DNA that codes for the intracellular tyrosine kinase domain; made in house; host or cells: SF9 insect cells (baculovirus); crude cell lysate used
T2 sequence (P05622 599-961 limits assumed): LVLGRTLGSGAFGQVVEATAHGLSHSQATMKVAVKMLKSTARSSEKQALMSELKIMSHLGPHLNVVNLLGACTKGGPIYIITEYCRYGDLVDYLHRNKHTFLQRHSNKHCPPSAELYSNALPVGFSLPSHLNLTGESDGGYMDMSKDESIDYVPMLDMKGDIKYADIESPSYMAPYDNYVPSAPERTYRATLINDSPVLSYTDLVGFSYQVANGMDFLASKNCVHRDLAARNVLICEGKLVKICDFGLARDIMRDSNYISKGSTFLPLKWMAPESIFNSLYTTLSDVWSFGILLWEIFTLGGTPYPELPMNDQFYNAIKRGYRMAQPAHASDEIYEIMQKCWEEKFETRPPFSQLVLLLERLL
From the text: as §2, §3

cdk1/cyclinB, sequence (P06493 whole entry, species assumed): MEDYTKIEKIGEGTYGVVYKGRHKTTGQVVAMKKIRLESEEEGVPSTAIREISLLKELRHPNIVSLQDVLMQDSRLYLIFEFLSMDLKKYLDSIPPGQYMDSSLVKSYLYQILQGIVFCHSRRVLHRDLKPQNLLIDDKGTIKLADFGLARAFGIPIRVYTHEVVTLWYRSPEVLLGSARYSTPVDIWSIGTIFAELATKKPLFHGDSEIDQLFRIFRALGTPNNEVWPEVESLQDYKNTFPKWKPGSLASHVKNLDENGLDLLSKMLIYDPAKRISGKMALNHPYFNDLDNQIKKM
cdk1/cyclinB, sequence (P14635 whole entry partner, species assumed): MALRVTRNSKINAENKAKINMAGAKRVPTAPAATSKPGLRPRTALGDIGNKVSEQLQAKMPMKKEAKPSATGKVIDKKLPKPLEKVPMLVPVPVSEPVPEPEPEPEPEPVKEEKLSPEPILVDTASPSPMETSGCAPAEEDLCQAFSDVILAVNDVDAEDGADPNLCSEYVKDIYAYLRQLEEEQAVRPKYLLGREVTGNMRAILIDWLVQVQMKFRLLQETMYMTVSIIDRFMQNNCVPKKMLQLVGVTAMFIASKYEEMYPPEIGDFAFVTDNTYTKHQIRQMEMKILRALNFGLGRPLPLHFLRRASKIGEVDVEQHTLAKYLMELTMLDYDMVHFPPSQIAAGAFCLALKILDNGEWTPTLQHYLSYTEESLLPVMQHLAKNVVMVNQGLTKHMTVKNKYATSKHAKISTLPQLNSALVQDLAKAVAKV

SMILES: CN(C(=O)NC1CCCCC1)c1ccc2cnc(Nc3ccc(N4CCNCC4)cc3)nc2n1 [Compound 70, 3-Cyclohexyl-1-methyl-1-[2-(4-piperazin-1-yl-phenylamino)-pyrido[2,3-d]pyrimidin-7-yl]-urea]
- IC50 (cdk1/cyclinB): 1450 nM
- melting point: 169 to 175 °C
- IC50 (cdk2/cyclinA): 697 nM
- IC50 [1]: 1150 nM
- IC50 (cdk4/cyclinD): 17 nM
- IC50 (cdk2/cyclinE): 530 nM
- IC50 [2]: 536 nM

— US7053070B2, “Pyrido[2,3-d]pyrimidine-2,7-diamine kinase inhibitors” (Warner-Lambert Company, priority 2000, dated 2006)
